Measured values published in PubChem BioAssay AID328 (DTP/NCI, 2004).
“And” between values parts separate entries of the source, which are not always exact repeats. Identical values can stand only once. Toxic doses and inconclusive results are not listed. How the source made its calls: active means survival T/C of 150% or more; inactive means T/C below 125% in these data. Residues, ends and D or L forms follow the SMILES beside them. *: point of attachment. Cbz = O=C(OCc1ccccc1)*; OBn = c1ccc(CO*)cc1; Bn = c1ccc(C*)cc1

System: BDF1 mice, P388 leukemia ip, median survival T/C
Assay: NCI In Vivo Anticancer Drug Screen. Data for tumor model P388 Leukemia (intraperitoneal) in B6D2F1 (BDF1) mice
Details: endpoint: median survival time, higher = longer survival
Method in brief: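 Steps: implant the tumour, treat one group with compound and another with vehicle, record survival, then divide treated by control.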

[1] = dose: 100.0 mg/kg/injection, schedule: Q01DX009 (ip), vehicle: saline with Tween-80
[2] = dose: 100.0 mg/kg/injection, schedule: Q04DX003 (ip), vehicle: saline with Tween-80
[3] = dose: 200.0 mg/kg/injection, schedule: Q04DX003 (ip), vehicle: saline with Tween-80
[4] = dose: 400.0 mg/kg/injection, schedule: Q04DX003 (ip), vehicle: saline with Tween-80
[5] = dose: 100.0 mg/kg/injection, schedule: Q01DX009 (ip), vehicle: saline
[6] = dose: 100.0 mg/kg/injection, schedule: Q04DX003 (ip), vehicle: saline
[7] = dose: 200.0 mg/kg/injection, schedule: Q01DX009 (ip), vehicle: saline
[8] = dose: 200.0 mg/kg/injection, schedule: Q04DX003 (ip), vehicle: saline
[9] = dose: 100.0 mg/kg/injection, schedule: Q01DX001 (ip), vehicle: saline with Tween-80
[10] = dose: 200.0 mg/kg/injection, schedule: Q01DX001 (ip), vehicle: saline with Tween-80
[11] = dose: 400.0 mg/kg/injection, schedule: Q01DX001 (ip), vehicle: saline with Tween-80
[12] = dose: 25.0 mg/kg/injection, schedule: Q01DX009 (ip), vehicle: saline with Tween-80
[13] = dose: 50.0 mg/kg/injection, schedule: Q01DX009 (ip), vehicle: saline with Tween-80
[14] = dose: 50.0 mg/kg/injection, schedule: Q04DX003 (ip), vehicle: saline with Tween-80

Measured: T/C

CCOC(=O)C(CC(OCC)OCC)C(=O)OCC
inactive: [1] 100 % of control | [2] 104 % of control | dose: 200.0 mg/kg/injection, schedule: Q01DX009 (ip), vehicle: saline with Tween-80 91 % of control | [3] 113 % of control | dose: 400.0 mg/kg/injection, schedule: Q01DX009 (ip), vehicle: saline with Tween-80 122 % of control | [4] 113 % of control

CCCCNC(=O)Nc1ccccc1Cl
inactive: [2] 100 % of control | [3] 100 % of control | [4] 95 % of control

COc1cc(N2CCOCC2)ccc1[N+](=O)[O-]
inactive: [5] 91 % of control | [6] 109 % of control | [7] 100 % of control | [8] 104 % of control | dose: 400.0 mg/kg/injection, schedule: Q04DX003 (ip), vehicle: saline 95 % of control

CCc1c(/C=C2/OC(=O)NC2=O)[nH]c(=S)[nH]c1=O
inactive: [2] 100 % of control | [3] 91 % of control | [4] 104 % of control

COC(OC)c1[nH]c(=S)[nH]c(=O)c1Cc1c(Cl)cccc1Cl
inactive: [2] 104 % of control | [3] 104 % of control | [4] 100 % of control

Cc1ccc(C)c(NC(=O)c2ccc(Cl)cc2)c1
inactive: [9] 104 % of control | [10] 104 % of control | [11] 100 % of control

CCOc1ccc2nnnn2n1
inactive: dose: 62.5 mg/kg/injection, schedule: Q01DX009 (ip), vehicle: saline 100 % of control | dose: 250.0 mg/kg/injection, schedule: Q01DX009 (ip), vehicle: saline 97 % of control

COc1ccc(C(Cn2ccnc2)Sc2ccc(Cl)c(Cl)c2)cc1 (centres undefined)
inactive: dose: 12.5 mg/kg/injection, schedule: Q01DX009 (ip), vehicle: saline with Tween-80 105 % of control | [12] 110 % of control | [13] 120 % of control | [1] 93 % of control and 119 % of control

O=C(C[n+]1ccc2ccccc2c1)c1ccccc1
inactive: dose: 12.5 mg/kg/injection, schedule: Q04DX003 (ip), vehicle: saline with Tween-80 100 % of control | dose: 25.0 mg/kg/injection, schedule: Q04DX003 (ip), vehicle: saline with Tween-80 100 % of control | [14] 100 % of control

CN(C)P(=O)(N(C)C)N1CC1
active: dose: 90.0 mg/kg/injection, schedule: Q04DX003 (ip), vehicle: saline 192 % of control | [6] 157 % of control | dose: 135.0 mg/kg/injection, schedule: Q04DX003 (ip), vehicle: saline 176 % of control | [8] 233 % of control and 211 % of control

COC(=O)C(C)CN1CCCCCC1 (centres undefined)
inactive: dose: 50.0 mg/kg/injection, schedule: Q01DX009 (ip), vehicle: saline 109 % of control | [5] 90 % of control | [7] 109 % of control

N#Cc1cnc2nc1NCCCCCCC2
inactive: [2] 86 % of control

CC(C)(C)c1cc(Br)c(N)c(C(O)(C(F)(F)F)C(F)(F)F)c1
inactive: [9] 105 % of control | [10] 109 % of control | [11] 111 % of control

COc1ccc(-c2cc(=O)c3c(O)c(OC)c(O)cc3o2)cc1
inactive: dose: 10.0 mg/kg/injection, schedule: Q01DX010 (ip), vehicle: carboxymethylcellulose (CMC) 95 % of control | dose: 20.0 mg/kg/injection, schedule: Q01DX010 (ip), vehicle: carboxymethylcellulose (CMC) 90 % of control | dose: 80.0 mg/kg/injection, schedule: Q01DX010 (ip), vehicle: carboxymethylcellulose (CMC) 95 % of control

Oc1ccc(Cl)cc1Br
inactive: [12] 110 % of control | [13] 115 % of control | [1] 110 % of control

COc1cccc(C(O)c2ccncc2)c1OC (centres undefined)
inactive: dose: 25.0 mg/kg/injection, schedule: Q04DX003 (ip), vehicle: water 113 % of control | dose: 50.0 mg/kg/injection, schedule: Q04DX003 (ip), vehicle: water 108 % of control | dose: 100.0 mg/kg/injection, schedule: Q04DX003 (ip), vehicle: water 103 % of control | dose: 200.0 mg/kg/injection, schedule: Q04DX003 (ip), vehicle: water 90 % of control | dose: 400.0 mg/kg/injection, schedule: Q04DX003 (ip), vehicle: water 97 % of control

O=C1NC(c2ccccc2)(c2ccccc2)C(=O)N1CCN(CCCl)CCCl
active: dose: 14.0 mg/kg/injection, schedule: Q04DX003 (ip), vehicle: saline 150 % of control | dose: 21.0 mg/kg/injection, schedule: Q04DX003 (ip), vehicle: saline 190 % of control | dose: 33.0 mg/kg/injection, schedule: Q04DX003 (ip), vehicle: saline with Tween-80 154 % of control and 168 % of control | [14] 181 % of control and 200 % of control
inactive: dose: 6.1 mg/kg/injection, schedule: Q04DX003 (ip), vehicle: saline with Tween-80 100 % of control

CC(C)CC(NC(=O)C(CSCc1ccccc1)NC(=O)OCc1ccccc1)C(=O)OCc1ccccc1 (centres undefined) (Cbz-Cys(Bn)-Leu-OBn; configuration not given here)
inactive: dose: 100.0 mg/kg/injection, schedule: Q04DX003 (ip), vehicle: gum acacia 104 % of control | dose: 200.0 mg/kg/injection, schedule: Q04DX003 (ip), vehicle: gum acacia 100 % of control | dose: 400.0 mg/kg/injection, schedule: Q04DX003 (ip), vehicle: gum acacia 100 % of control

O=C(NC(=S)Nc1ccccc1C(=O)O)c1ccccc1
inactive: [14] 104 % of control | [2] 100 % of control | [3] 90 % of control

NC(=O)NO
inactive: dose: 31.3 mg/kg/injection, schedule: Q01DX010 (ip), vehicle: saline 100 % of control | dose: 62.5 mg/kg/injection, schedule: Q01DX010 (ip), vehicle: saline 100 % of control | dose: 125.0 mg/kg/injection, schedule: Q01DX010 (ip), vehicle: saline 100 % of control | dose: 250.0 mg/kg/injection, schedule: Q01DX010 (ip), vehicle: saline 100 % of control | dose: 750.0 mg/kg/injection, schedule: Q01DX009 (ip), vehicle: saline 100 % of control
active: dose: 500.0 mg/kg/injection, schedule: Q01DX010 (ip), vehicle: saline 150 % of control

CC(C(=O)c1cccs1)C(O)(C(F)(F)F)C(F)(F)F (centres undefined)
inactive: dose: 100.0 mg/kg/injection, schedule: Q04DX003 (ip), vehicle: Klucel (hydroxypropylcellulose) (HPC) 91 % of control | dose: 200.0 mg/kg/injection, schedule: Q04DX003 (ip), vehicle: Klucel (hydroxypropylcellulose) (HPC) 91 % of control

C[n+]1c(-c2ccccc2)c2ccccc2c2ccccc21
inactive: dose: 0.75 mg/kg/injection, schedule: Q01DX009 (ip), vehicle: water 102 % of control | dose: 1.5 mg/kg/injection, schedule: Q01DX009 (ip), vehicle: water 105 % of control | dose: 1.5 mg/kg/injection, schedule: Q04DX003 (ip), vehicle: water 111 % of control | dose: 3.0 mg/kg/injection, schedule: Q01DX009 (ip), vehicle: water 105 % of control | dose: 3.0 mg/kg/injection, schedule: Q04DX003 (ip), vehicle: water 111 % of control | dose: 6.0 mg/kg/injection, schedule: Q04DX003 (ip), vehicle: water 93 % of control

Nc1ccccc1.[C-]#[O+].[C-]#[O+].[C-]#[O+].[C-]#[O+].[C-]#[O+].[Cr]
inactive: dose: 2.5 mg/kg/injection, schedule: Q01DX009 (ip), vehicle: saline 91 % of control | dose: 5.0 mg/kg/injection, schedule: Q01DX009 (ip), vehicle: saline 101 % of control

OC(CNc1ccc(Cl)cc1)COc1ccc(Cl)cc1Cl (centres undefined)
inactive: dose: 50.0 mg/kg/injection, schedule: Q01DX009 (ip), vehicle: Klucel (hydroxypropylcellulose) (HPC) 100 % of control | dose: 100.0 mg/kg/injection, schedule: Q01DX009 (ip), vehicle: Klucel (hydroxypropylcellulose) (HPC) 101 % of control | dose: 200.0 mg/kg/injection, schedule: Q01DX009 (ip), vehicle: Klucel (hydroxypropylcellulose) (HPC) 102 % of control

N=C(N)SCc1ccc(CSC(=N)N)s1
inactive: dose: 6.25 mg/kg/injection, schedule: Q01DX009 (ip), vehicle: saline 97 % of control | dose: 12.5 mg/kg/injection, schedule: Q01DX009 (ip), vehicle: saline 106 % of control | dose: 25.0 mg/kg/injection, schedule: Q01DX009 (ip), vehicle: saline 106 % of control

COc1cccc2c1C(=O)c1c(O)c3c(c(O)c1C2=O)C[C@@](O)(C(=O)COC(=O)Cc1ccccc1)C[C@@H]3OC1CC(N)C(O)C(C)O1 (some centres undefined)
active: dose: 1.3 mg/kg/injection, schedule: Q01DX009 (ip), vehicle: saline 162 % of control | dose: 2.0 mg/kg/injection, schedule: Q01DX009 (ip), vehicle: saline 200 % of control
